Residue numbers refer to the chain shown, from its start. Structures can show the parent of a compound that is named as a salt.
Each molecule was assayed against T1, Human renin (Homo sapiens, UniProt P00797) (assay: Human renin inhibition, angiotensin I quantified by EIA). Conditions: read-out: Human renin inhibitory activity: inhibitory activity (%) at 0.1 μM.
T1 sequence (P00797 67-406): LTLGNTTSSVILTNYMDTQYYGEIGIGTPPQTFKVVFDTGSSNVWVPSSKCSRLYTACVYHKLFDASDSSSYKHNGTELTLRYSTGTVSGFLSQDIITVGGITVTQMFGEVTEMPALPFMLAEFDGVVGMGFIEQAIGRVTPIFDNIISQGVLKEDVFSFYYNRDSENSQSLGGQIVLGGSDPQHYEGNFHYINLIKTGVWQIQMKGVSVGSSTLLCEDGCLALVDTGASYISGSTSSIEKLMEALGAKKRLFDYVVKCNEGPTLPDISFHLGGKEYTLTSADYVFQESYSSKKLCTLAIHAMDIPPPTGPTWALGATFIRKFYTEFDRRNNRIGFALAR
Method: (6) Measurement of Renin Inhibition Value
As a substrate for renin activity measurement, the angiotensinogen mentioned in (5) above was used. 1 μl each of the test compound (containing 100% DMSO) was added to each well of a 384-well plate (ABgene). Renin was diluted with a buffer solution for reaction (20 mM sodium phosphate (pH 7.4)) to a concentration of 57 pM, and 14 μl each of the dilution was added to each well. The dilution was left to stand at 37° C. for 10 min, and then 5 μl of each of a 6 μM solution of substrate angiotensinogen was added to each well to initiate the reaction. […] The amount of angiotensin I produced by an enzyme reaction was quantified by Enzyme Immuno Assay (EIA) described below.
Anti-angiotensin I antibody (Peninsula Laboratories Inc.) diluted 5,000-fold with PBS was added to each well of a 384 well black plate (Nalge Nunc International Co., Ltd.) by 25 μl, and left standing overnight at 4° C. to immobilize the antibody in the plate. The antibody solution was removed, PBS solution (100 μl) containing 1% BSA was added to each well, and the mixture was left standing at room temperature for 2 hr for blocking. The blocking solution was removed, and each well was washed 5 times with 100 μl of 0.05% Tween20-PBS. […] Then, a biotinated angiotensin I solution (AnaSpec, 15 μl) prepared to 1.6 nM with a buffer [20 mM tris-hydrochloric acid (pH 7.4), 150 mM sodium chloride, 0.01% BSA, 0.05% Tween20] was added to each well, mixed with a plate mixer and left standing at room temperature for 1 hr. The solutions were removed from each well, and each well was washed 5 times with 100 μl of 0.05% Tween20-PBS. Horseradish peroxydase Streptavidin (PIERCE Biotecnology inc., 25 μl) diluted to 100 ng/ml with a buffer [20 mM tris-hydrochloric acid (pH 7.4), 150 mM sodium chloride, 0.1% BSA, 0.05% Tween 20] was added to each well and the mixture was left standing at room temperature for 30 min. The solutions were removed from each well, and each well was washed 5 times with 100 μl of 0.05% Tween20-PBS. SuperSignal ELISA femto Maximum Sensitivity Substrate (PIERCE Biotecnology Inc.) was added by 25 μl and luminescence intensity was measured by EnVision (Perkin Elmer Inc.). An analytical curve was drawn from the luminescence intensity of wells containing an angiotensin I standard solution, and the amount of angiotensin I produced by an enzyme reaction was calculated and used as an index of renin activity.

| Structure (SMILES) | inhibition at 0.1 µM |
| --- | --- |
| CC[C@@H](O)[C@H]1CNC[C@@H](N(CC(C)C)C(=O)c2nc3ccccc3n2CCCCOC)C1.Cl.Cl [Example 75-2, N-{(3S,5R)-5-[(1R)-1-hydroxypropyl]piperidin-3-yl}-1-(4-methoxybutyl)-N-(2-methylpropyl)-1H-benzimidazole-2-carboxamide dihydrochloride] | 90% |
| COCCCCn1c(C(=O)N(CC(C)C)[C@@H]2CNC[C@H]([C@H](C)O)C2)nc2ccccc21.Cl.Cl [Example 74-1, N-{(3S,5R)-5-[(1S)-1-hydroxyethyl]piperidin-3-yl}-1-(4-methoxybutyl)-N-(2-methylpropyl)-1H-benzimidazole-2-carboxamide dihydrochloride] | 94% |
| COCCCCn1c(C(=O)N(CC(C)C)[C@@H]2CNC[C@H]([C@@H](C)O)C2)nc2ccccc21.Cl.Cl [Example 74-2, N-{(3S,5R)-5-[(1R)-1-hydroxyethyl]piperidin-3-yl}-1-(4-methoxybutyl)-N-(2-methylpropyl)-1H-benzimidazole-2-carboxamide dihydrochloride] | 96% |
| CC[C@H](O)[C@H]1CNC[C@@H](N(CC(C)C)C(=O)c2nc3ccccc3n2CCCCOC)C1.Cl.Cl [Example 75-1, N-{(3S,5R)-5-[(1S)-1-hydroxypropyl]piperidin-3-yl}-1-(4-methoxybutyl)-N-(2-methylpropyl)-1H-benzimidazole-2-carboxamide dihydrochloride] | 95% |

What follows are molecules tested against T2, plasma renin activity (PRA) (Macaca fascicularis, UniProt Q6DLS0) (assay: not given). Conditions: male Macaca fascicularis; 1 mg/kg orally in 0.5% methylcellulose; plasma 4 hr after administration; amended with vehicle group.
T2 sequence (Q6DLS0 67-406): T1 sequence (P00797 67-406) with T2A, I148L, S169A

| Structure (SMILES) | Macaca fascicularis plasma renin activity: PPA inhibitory activity (%, n = 3-7) |
| --- | --- |
| COCCCCn1c(C(=O)N(CC(C)C)[C@@H]2CNC[C@H](C(=O)N3CCCCC3)C2)nc2ccccc21 [Example 21, 1-(4-methoxybutyl)-N-(2-methylpropyl)-N-[(3S,5R)-5-(piperidin-1-ylcarbonyl)piperidin-3-yl]-1H-benzimidazole-2-carboxamide dihydrochloride] | 85% |
| COCCCCn1c(C(=O)N(CC(C)C)[C@@H]2CNC[C@H](C(N)=O)C2)nc2ccccc21 [Example 25, N-[(3S,5R)-5-carbamoylpiperidin-3-yl]-1-(4-methoxybutyl)-N-(2-methylpropyl)-1H-benzimidazole-2-carboxamide dihydrochloride] | 79% |
| CCC(O)[C@H]1CNC[C@@H](N(CC(C)C)C(=O)c2nc3ccccc3n2CCCCOC)C1 (stereo partly drawn) [Example 76, N-[(3S,5R)-5-(1-hydroxypropyl)piperidin-3-yl]-1-(4-methoxybutyl)-N-(2-methylpropyl)-1H-benzimidazole-2-carboxamide dihydrochloride] | 79% |
| COCCCCn1c(C(=O)N(CC(C)C)[C@@H]2CNC[C@H](CO)C2)nc2ccccc21 [Example 40, N-[(3S,5R)-5-(hydroxymethyl)piperidin-3-yl]-1-(4-methoxybutyl)-N-(2-methylpropyl)-1H-benzimidazole-2-carboxamide dihydrochloride] | 75% |
| COCCCCn1c(C(=O)N(CC(C)C)[C@@H]2CNC[C@H](C(=O)N3CCCC3)C2)nc2cc(F)ccc21 [Example 18, 5-fluoro-1-(4-methoxybutyl)-N-(2-methylpropyl)-N-[(3S,5R)-5-(pyrrolidin-1-ylcarbonyl)piperidin-3-yl]-1H-benzimidazole-2-carboxamide dihydrochloride] | 89% |
| COCCCCn1c(C(=O)N(CC(C)C)[C@@H]2CNC[C@H]([C@@H](O)COC)C2)nc2ccccc21.Cl.Cl [Example 73-1, N-{(3S,5R)-5-[(1R)-1-hydroxy-2-methoxyethyl]piperidin-3-yl}-1-(4-methoxybutyl)-N-(2-methylpropyl)-1H-benzimidazole-2-carboxamide dihydrochloride] | 77% |
| COCCCCn1c(C(=O)N(CC(C)C)[C@@H]2CNC[C@H](C(=O)N3CCOCC3)C2)nc2ccccc21 [Example 10, 1-(4-methoxybutyl)-N-(2-methylpropyl)-N-[(3S,5R)-5-(morpholin-4-ylcarbonyl)piperidin-3-yl]-1H-benzimidazole-2-carboxamide dihydrochloride] | 72% |
| COCCCCn1c(C(=O)N(CC2CC2)[C@@H]2CNC[C@H](C(=O)N3CCOCC3)C2)nc2ccccc21 [Example 253, N-(cyclopropylmethyl)-1-(4-methoxybutyl)-N-[(3S,5R)-5-(morpholin-4-ylcarbonyl)piperidin-3-yl]-1H-benzimidazole-2-carboxamide dihydrochloride] | 77% |
| COCCCCc1c(C(=O)N(CC(C)C)[C@@H]2CNC[C@H](C(=O)N3CCOCC3)C2)nnn1-c1ccccc1Cl.Cl [Example 235, 1-(2-chlorophenyl)-5-(4-methoxybutyl)-N-(2-methylpropyl)-N-[(3S,5R)-5-(morpholin-4-ylcarbonyl)piperidin-3-yl]-1H-1,2,3-triazole-4-carboxamide hydrochloride] | 62% |
| COCCCCn1c(C(=O)N(CC(C)C)[C@@H]2CNC[C@H](C(=O)N3CCOCC3)C2)nc2ccc(F)cc21 [Example 11, 6-fluoro-1-(4-methoxybutyl)-N-(2-methylpropyl)-N-[(3S,5R)-5-(morpholin-4-ylcarbonyl)piperidin-3-yl]-1H-benzimidazole-2-carboxamide dihydrochloride] | 89% |
| CC[C@@H](O)[C@H]1CNC[C@@H](N(CC(C)C)C(=O)c2nc3ccccc3n2CCCCOC)C1.Cl.Cl [Example 75-2, N-{(3S,5R)-5-[(1R)-1-hydroxypropyl]piperidin-3-yl}-1-(4-methoxybutyl)-N-(2-methylpropyl)-1H-benzimidazole-2-carboxamide dihydrochloride] | 71% |
| COCCCCn1c(C(=O)N(CC(C)C)[C@@H]2CNC[C@H](C(=O)OCc3oc(=O)oc3C)C2)nc2ccccc21 [Example 7, (5-methyl-2-oxo-1,3-dioxol-4-yl)methyl (3R,5S)-5-[{[1-(4-methoxybutyl)-1H-benzimidazol-2-yl]carbonyl}(2-methylpropyl)amino]piperidine-3-carboxylate dihydrochloride] | 93% |
| COCCCCc1c(C(=O)N(CC(C)C)[C@@H]2CNC[C@H](C(=O)N3CCOCC3)C2)nnn1-c1ccccc1F.Cl [Example 233, 1-(2-fluorophenyl)-5-(4-methoxybutyl)-N-(2-methylpropyl)-N-[(3S,5R)-5-(morpholin-4-ylcarbonyl)piperidin-3-yl]-1H-1,2,3-triazole-4-carboxamide hydrochloride] | 67% |
| COCCCCn1c(C(=O)N(CC(C)C)[C@@H]2CNC[C@H](C(=O)N3CCCC3)C2)nc2ccc(OC)cc21 [Example 62, 6-methoxy-1-(4-methoxybutyl)-N-(2-methylpropyl)-N-{(3S,5R)-5-(pyrrolidin-1-ylcarbonyl)piperidin-3-yl}-1H-benzimidazole-2-carboxamide dihydrochloride] | 75% |
| COCCCCn1c(C(=O)N(CC(C)C)[C@@H]2CNC[C@H](C(=O)O)C2)nc2ccccc21 [Example 33, (3R,5S)-5-[{[1-(4-methoxybutyl)-1H-benzimidazol-2-yl]carbonyl}(2-methylpropyl)amino]piperidine-3-carboxylic acid dihydrochloride] | 77% |
| COCCCCn1c(C(=O)N(CC(C)C)[C@@H]2CNC[C@H]([C@H](C)O)C2)nc2ccccc21.Cl.Cl [Example 74-1, N-{(3S,5R)-5-[(1S)-1-hydroxyethyl]piperidin-3-yl}-1-(4-methoxybutyl)-N-(2-methylpropyl)-1H-benzimidazole-2-carboxamide dihydrochloride] | 90% |
| COCCCCn1c(C(=O)N(CC(C)C)[C@@H]2CNC[C@H](C(=O)N3CCOCC3)C2)nc2ccc(OC)cc21 [Example 60, 6-methoxy-1-(4-methoxybutyl)-N-(2-methylpropyl)-N-{(3S,5R)-5-(morpholin-4-ylcarbonyl)piperidin-3-yl}-1H-benzimidazole-2-carboxamide dihydrochloride] | 85% |
| COCCCCn1c(C(=O)N(CC(C)C)[C@@H]2CNC[C@H](C(C)O)C2)nc2ccccc21 (stereo partly drawn) [Example 42, N-[(3S,5R)-5-(1-hydroxyethyl)piperidin-3-yl]-1-(4-methoxybutyl)-N-(2-methylpropyl)-1H-benzimidazole-2-carboxamide dihydrochloride] | 70% |
| COCCCCn1c(C(=O)N(CC(C)C)[C@@H]2CNC[C@H]([C@@H](C)O)C2)nc2ccccc21.Cl.Cl [Example 74-2, N-{(3S,5R)-5-[(1R)-1-hydroxyethyl]piperidin-3-yl}-1-(4-methoxybutyl)-N-(2-methylpropyl)-1H-benzimidazole-2-carboxamide dihydrochloride] | 54% |
| COCCCCn1c(C(=O)N(CC(C)C)[C@@H]2CNC[C@H](C(O)COC)C2)nc2ccccc21 (stereo partly drawn) [Example 48, N-[(3S,5R)-5-(1-hydroxy-2-methoxyethyl)piperidin-3-yl]-1-(4-methoxybutyl)-N-(2-methylpropyl)-1H-benzimidazole-2-carboxamide dihydrochloride] | 78% |
| COCCCCn1c(C(=O)N(CC(C)C)[C@@H]2CNC[C@H]([C@H](O)COC)C2)nc2ccccc21.Cl.Cl [Example 73-2, N-{(3S,5R)-5-[(1S)-1-hydroxy-2-methoxyethyl]piperidin-3-yl}-1-(4-methoxybutyl)-N-(2-methylpropyl)-1H-benzimidazole-2-carboxamide dihydrochloride] | 90% |
| CC[C@H](O)[C@H]1CNC[C@@H](N(CC(C)C)C(=O)c2nc3ccccc3n2CCCCOC)C1.Cl.Cl [Example 75-1, N-{(3S,5R)-5-[(1S)-1-hydroxypropyl]piperidin-3-yl}-1-(4-methoxybutyl)-N-(2-methylpropyl)-1H-benzimidazole-2-carboxamide dihydrochloride] | 86% |

Reference: patent publication US9221836B2, “Heterocyclic compound and use thereof” (TAKEDA PHARMACEUTICAL COMPANY LIMITED, priority 2008, dated 2015)
